This note sets out measurements from PubChem BioAssay (NCI).

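Tested at 5 concentrations; 48 h exposure; 96-well plates; endpoints linearly interpolated, else capped at highest concentration. GI50: concentration for 50% inhibition of growth. TGI: total growth inhibition.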

Test systems include SK-MEL-5 melanoma; EKVX NSCLC; SK-OV-3 ovarian; M14 melanoma; CCRF-CEM leukemia; UACC-257 melanoma; OVCAR-5 ovarian; KM12 colon; RPMI-8226 leukemia.
Common to all, as to test: NCI anticancer screen, dose series, 48 h

Turning to `CCCCCCCCCCCCCC(=O)CSCCNC(=O)CCNC(=O)[C@@H](O)C(C)(C)COP(=O)(O)OP(=O)(O)OCC1OC(n2cnc3c(N)ncnc32)C(O)C1OP(=O)(O)O` (stereo not given in full), the TGI in the test with SK-MEL-5 melanoma is 34.5 µM; with EKVX NSCLC, 41.3 µM; in the test on SK-OV-3 ovarian it was 27.8 µM; in the test with M14 melanoma it was 32 µM; in the test with CCRF-CEM leukemia it was 99.2 µM; with UACC-257 melanoma, 36.1 µM. Further, the values for the TGI in the test with OVCAR-5 ovarian and with KM12 colon were 83.1 µM and 39 µM, respectively.

In the case of `CCOc1ccc(O)cc1[P+](c1ccccc1)(c1ccccc1)c1ccccc1`, the TGI came out at 4.7 µM in the test on SK-MEL-5 melanoma; 26.5 µM in the test on RPMI-8226 leukemia; 24.2 µM with EKVX NSCLC; 27.1 µM with SK-OV-3 ovarian; 16.7 µM with M14 melanoma; 11.2 µM with CCRF-CEM leukemia. For the same compound, the TGI in the test with UACC-257 melanoma came to 5.9 µM; in the test on OVCAR-5 ovarian, 13.1 µM; with KM12 colon it was 11.7 µM.

With `CN(/N=C/c1cccc2cccnc12)c1c([N+](=O)[O-])cc([N+](=O)[O-])cc1[N+](=O)[O-]`, the TGI in the test on SK-MEL-5 melanoma, with RPMI-8226 leukemia, with EKVX NSCLC, in the test on SK-OV-3 ovarian, in the test on M14 melanoma and in the test with UACC-257 melanoma was greater than 100 µM each time. For the same compound, the TGI with OVCAR-5 ovarian and in the test with KM12 colon was greater than 100 µM in each case.

As for `CCOC(=O)/C(=C/c1ccc(N(CCC#N)CCC#N)cc1C)NC(=O)/C=C/c1ccccc1`, the TGI in the test with SK-MEL-5 melanoma, with RPMI-8226 leukemia, in the test on EKVX NSCLC, with SK-OV-3 ovarian, in the test with M14 melanoma and with CCRF-CEM leukemia was greater than 100 µM each time. Moreover, the TGI in the test on UACC-257 melanoma, in the test on OVCAR-5 ovarian and in the test with KM12 colon was greater than 100 µM in each case.

As to `Cc1cc(=O)[nH]c(CNC(=O)c2cccc(C(=O)NCc3cc(=O)[nH]c(C)n3)c2)n1`, the TGI in the test on SK-MEL-5 melanoma, in the test on RPMI-8226 leukemia, in the test with EKVX NSCLC, in the test with SK-OV-3 ovarian, in the test with M14 melanoma and in the test with CCRF-CEM leukemia was greater than 100 µM each time. The TGI in the test on UACC-257 melanoma, in the test on OVCAR-5 ovarian and in the test on KM12 colon was greater than 100 µM in each case.

Take `O=C(CCc1nnc2s/c(=C\c3ccccc3Cl)c(=O)n12)Nc1cc(Cl)ccc1Cl`: the TGI in the test on SK-MEL-5 melanoma, with RPMI-8226 leukemia, in the test on EKVX NSCLC, with SK-OV-3 ovarian, in the test on M14 melanoma and in the test on CCRF-CEM leukemia was greater than 100 µM in each case. Moreover, the TGI in the test with UACC-257 melanoma, in the test on OVCAR-5 ovarian and in the test on KM12 colon was greater than 100 µM throughout.

On to `COC1OC(C)C2OC(C)(C)OC2C1OC(C)=O` (stereo not given), for which the TGI in the test on SK-MEL-5 melanoma, with RPMI-8226 leukemia, with M14 melanoma, with CCRF-CEM leukemia, in the test with UACC-257 melanoma and in the test on OVCAR-5 ovarian was greater than 100 µM in each case. Besides, in the test with KM12 colon, the TGI is greater than 100 µM.

As to `CC(=O)NNc1nc(C)c(C(=O)NNC(=O)C(=O)Nc2ccc([N+](=O)[O-])cc2C#N)s1`, the TGI with SK-MEL-5 melanoma, with RPMI-8226 leukemia, with EKVX NSCLC, in the test on SK-OV-3 ovarian, in the test with M14 melanoma and in the test with CCRF-CEM leukemia was greater than 100 µM throughout. Further, the TGI in the test on UACC-257 melanoma, with OVCAR-5 ovarian and in the test on KM12 colon was greater than 100 µM in each case.

Consider `CC1NC(=O)C2=C1C(N)=NC(=O)C2` (stereo not given), for which the TGI in the test with SK-MEL-5 melanoma, with RPMI-8226 leukemia, in the test on EKVX NSCLC, in the test with SK-OV-3 ovarian, in the test with M14 melanoma and in the test on UACC-257 melanoma was greater than 100 µM throughout. Besides, the TGI with OVCAR-5 ovarian and with KM12 colon was greater than 100 µM each time.

Turning to `COc1ccc(Cn2cc3c(c2-c2ccccc2)CCc2cnoc2-3)cc1N`, the GI50 in the test on SK-MEL-5 melanoma is 0.0617 µM; in the test with RPMI-8226 leukemia it was 0.31 µM; with EKVX NSCLC it was 0.359 µM; with SK-OV-3 ovarian, 0.252 µM; in the test on M14 melanoma, 0.227 µM; in the test with CCRF-CEM leukemia it was 0.245 µM. The GI50 in the test on UACC-257 melanoma is 10.2 µM; with OVCAR-5 ovarian, 0.629 µM; in the test on KM12 colon, 0.0788 µM. In addition, the TGI is 2.58 µM with SK-MEL-5 melanoma; greater than 100 µM with EKVX NSCLC; greater than 100 µM in the test with SK-OV-3 ovarian; greater than 100 µM with M14 melanoma; greater than 100 µM in the test on UACC-257 melanoma; greater than 100 µM in the test on OVCAR-5 ovarian. This compound had a TGI in the test on KM12 colon of 2.58 µM.

Take `CCN(CC)CCn1[nH]c2c3ccc(=O)cc3sc3c(NCCN)ccc1c32`: the TGI in the test on SK-MEL-5 melanoma came to 2.91 µM; in the test on RPMI-8226 leukemia it was 1.97 µM; in the test with EKVX NSCLC it was 7.13 µM; with SK-OV-3 ovarian, 3.74 µM; with CCRF-CEM leukemia, 0.719 µM; in the test on UACC-257 melanoma, 4.01 µM. Besides, the figures for the TGI in the test on OVCAR-5 ovarian and in the test on KM12 colon were 4.87 µM and 2.75 µM, respectively.

Turning to `CC(C)(C)OC(=O)c1cccnc1/C=N/O`, the TGI with SK-MEL-5 melanoma, with EKVX NSCLC, with SK-OV-3 ovarian, with M14 melanoma, in the test on CCRF-CEM leukemia and with UACC-257 melanoma was greater than 100 µM throughout. Further, the TGI in the test on OVCAR-5 ovarian and in the test on KM12 colon was greater than 100 µM throughout.

For `NCCCCCCNCc1cccc2ccccc12`, the TGI with SK-MEL-5 melanoma is greater than 100 µM; in the test on RPMI-8226 leukemia, greater than 100 µM; with EKVX NSCLC, greater than 100 µM; with SK-OV-3 ovarian, greater than 100 µM; in the test with M14 melanoma, 34.3 µM; in the test on UACC-257 melanoma, greater than 100 µM. In addition, the TGI in the test with OVCAR-5 ovarian and with KM12 colon was greater than 100 µM each time.

Turning to `CC[N+](C)(CC)CC(C)(C)C(=O)/C=C/c1ccc(/C=C/C(=O)C(C)(C)C[N+](C)(CC)CC)cc1`, the TGI with SK-MEL-5 melanoma, with RPMI-8226 leukemia, in the test with EKVX NSCLC, in the test with SK-OV-3 ovarian, with M14 melanoma and in the test on CCRF-CEM leukemia was greater than 100 µM in each case. For the same compound, the TGI in the test on UACC-257 melanoma, in the test with OVCAR-5 ovarian and with KM12 colon was greater than 100 µM throughout.
